Test results: ChEMBL document CHEMBL1201862, “PubChem BioAssay data set” (2004)
Activity calls are given as the source filed them.

Key:
[1] = molecular target: Peroxisome proliferator-activated receptor gamma/Nuclear receptor coactivator 1 (Homo sapiens, UniProt P37231); test: (§1) TR-FRET dose response biochemical High Throughput Screening assay for agonists of the steroid receptor coactivator 1 (SRC-1) recruitment by the peroxisome proliferator-activated receptor gamma (PPAR gamma): non-selective agonists. [Related pubchem assays (depositor defined):AID1300, AID1808, AID504735, AID631]; assay type: protein assay
[2] = molecular target: Peroxisome proliferator-activated receptor gamma/Nuclear receptor coactivator 3 (Homo sapiens, UniProt P37231); test: as §1, with “3 (SRC-3)” for “1 (SRC-1)”, “assays: 1301 (Confirmation screen.), 1048 (Primary screen.)]” for “assays (depositor defined):AID1300, AID1808, AID504735, AID631]”; assay type: functional
Sequence of Peroxisome proliferator-activated receptor gamma/Nuclear receptor coactivator 3 (P37231 whole entry): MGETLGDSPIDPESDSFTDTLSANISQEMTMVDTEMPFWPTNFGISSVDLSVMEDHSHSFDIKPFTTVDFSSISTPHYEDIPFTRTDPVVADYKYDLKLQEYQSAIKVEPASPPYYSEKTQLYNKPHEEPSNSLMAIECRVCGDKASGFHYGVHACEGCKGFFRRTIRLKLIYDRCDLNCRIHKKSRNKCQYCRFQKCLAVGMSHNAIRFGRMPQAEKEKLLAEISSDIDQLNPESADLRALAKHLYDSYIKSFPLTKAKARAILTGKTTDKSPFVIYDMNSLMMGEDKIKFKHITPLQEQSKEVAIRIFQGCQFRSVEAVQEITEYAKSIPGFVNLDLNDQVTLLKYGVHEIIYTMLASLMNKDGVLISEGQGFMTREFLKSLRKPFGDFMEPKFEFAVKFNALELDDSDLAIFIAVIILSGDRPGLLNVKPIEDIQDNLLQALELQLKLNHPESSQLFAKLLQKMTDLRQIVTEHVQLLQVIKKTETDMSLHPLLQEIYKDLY
Sequence of Peroxisome proliferator-activated receptor gamma/Nuclear receptor coactivator 3 (Q9Y6Q9 whole entry, further chain): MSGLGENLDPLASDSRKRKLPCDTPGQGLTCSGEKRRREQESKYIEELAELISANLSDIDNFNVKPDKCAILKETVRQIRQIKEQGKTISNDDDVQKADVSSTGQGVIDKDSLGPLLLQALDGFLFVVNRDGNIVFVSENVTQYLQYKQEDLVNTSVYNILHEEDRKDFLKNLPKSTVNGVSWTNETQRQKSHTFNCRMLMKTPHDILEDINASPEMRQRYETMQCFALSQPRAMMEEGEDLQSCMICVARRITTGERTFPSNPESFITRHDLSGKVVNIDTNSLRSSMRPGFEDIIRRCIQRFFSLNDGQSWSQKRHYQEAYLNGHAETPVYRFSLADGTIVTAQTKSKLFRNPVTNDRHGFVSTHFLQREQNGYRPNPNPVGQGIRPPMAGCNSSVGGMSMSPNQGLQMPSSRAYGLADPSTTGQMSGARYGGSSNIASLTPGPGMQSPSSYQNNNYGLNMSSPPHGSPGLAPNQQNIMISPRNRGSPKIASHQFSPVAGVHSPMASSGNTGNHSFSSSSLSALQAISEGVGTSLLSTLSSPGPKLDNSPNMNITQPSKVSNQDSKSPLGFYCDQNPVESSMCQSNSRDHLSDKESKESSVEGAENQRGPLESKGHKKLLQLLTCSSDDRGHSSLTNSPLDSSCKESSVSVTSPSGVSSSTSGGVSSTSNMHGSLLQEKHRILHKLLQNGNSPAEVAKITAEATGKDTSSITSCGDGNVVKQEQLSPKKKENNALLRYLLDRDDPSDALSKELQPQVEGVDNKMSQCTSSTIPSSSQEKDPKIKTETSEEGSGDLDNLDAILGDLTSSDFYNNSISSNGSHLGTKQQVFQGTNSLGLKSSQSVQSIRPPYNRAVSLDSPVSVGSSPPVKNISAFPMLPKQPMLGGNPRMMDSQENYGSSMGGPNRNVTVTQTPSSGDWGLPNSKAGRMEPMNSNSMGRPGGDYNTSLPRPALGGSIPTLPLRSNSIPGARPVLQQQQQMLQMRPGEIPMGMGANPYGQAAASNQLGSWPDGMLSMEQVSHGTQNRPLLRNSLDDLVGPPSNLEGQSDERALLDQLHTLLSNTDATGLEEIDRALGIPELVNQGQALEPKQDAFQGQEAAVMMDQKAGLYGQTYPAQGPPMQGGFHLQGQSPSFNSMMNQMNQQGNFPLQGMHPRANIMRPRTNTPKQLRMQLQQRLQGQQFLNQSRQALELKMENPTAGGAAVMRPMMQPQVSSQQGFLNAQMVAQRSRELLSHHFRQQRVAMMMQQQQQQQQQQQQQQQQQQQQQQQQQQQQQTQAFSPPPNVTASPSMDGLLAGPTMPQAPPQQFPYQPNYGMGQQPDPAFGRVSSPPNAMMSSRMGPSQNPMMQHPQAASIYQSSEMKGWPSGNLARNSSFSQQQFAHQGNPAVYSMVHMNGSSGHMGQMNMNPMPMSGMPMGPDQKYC

[3] = molecular target: Peroxisome proliferator-activated receptor gamma/Nuclear receptor coactivator 2 (Homo sapiens, UniProt P37231); test: TR-FRET dose response biochemical High Throughput Screening assay for agonists of the steroid receptor coactivator 2 (SRC-2) recruitment by the peroxisome proliferator-activated receptor gamma (PPAR gamma): non-selective agonists. [Related pubchem assays: 1297, 1032 ]; assay type: functional
Sequence of Peroxisome proliferator-activated receptor gamma/Nuclear receptor coactivator 2 (P37231 whole entry): as the sequence (P37231 whole entry) above
Sequence of Peroxisome proliferator-activated receptor gamma/Nuclear receptor coactivator 2 (Q15596 whole entry, further chain): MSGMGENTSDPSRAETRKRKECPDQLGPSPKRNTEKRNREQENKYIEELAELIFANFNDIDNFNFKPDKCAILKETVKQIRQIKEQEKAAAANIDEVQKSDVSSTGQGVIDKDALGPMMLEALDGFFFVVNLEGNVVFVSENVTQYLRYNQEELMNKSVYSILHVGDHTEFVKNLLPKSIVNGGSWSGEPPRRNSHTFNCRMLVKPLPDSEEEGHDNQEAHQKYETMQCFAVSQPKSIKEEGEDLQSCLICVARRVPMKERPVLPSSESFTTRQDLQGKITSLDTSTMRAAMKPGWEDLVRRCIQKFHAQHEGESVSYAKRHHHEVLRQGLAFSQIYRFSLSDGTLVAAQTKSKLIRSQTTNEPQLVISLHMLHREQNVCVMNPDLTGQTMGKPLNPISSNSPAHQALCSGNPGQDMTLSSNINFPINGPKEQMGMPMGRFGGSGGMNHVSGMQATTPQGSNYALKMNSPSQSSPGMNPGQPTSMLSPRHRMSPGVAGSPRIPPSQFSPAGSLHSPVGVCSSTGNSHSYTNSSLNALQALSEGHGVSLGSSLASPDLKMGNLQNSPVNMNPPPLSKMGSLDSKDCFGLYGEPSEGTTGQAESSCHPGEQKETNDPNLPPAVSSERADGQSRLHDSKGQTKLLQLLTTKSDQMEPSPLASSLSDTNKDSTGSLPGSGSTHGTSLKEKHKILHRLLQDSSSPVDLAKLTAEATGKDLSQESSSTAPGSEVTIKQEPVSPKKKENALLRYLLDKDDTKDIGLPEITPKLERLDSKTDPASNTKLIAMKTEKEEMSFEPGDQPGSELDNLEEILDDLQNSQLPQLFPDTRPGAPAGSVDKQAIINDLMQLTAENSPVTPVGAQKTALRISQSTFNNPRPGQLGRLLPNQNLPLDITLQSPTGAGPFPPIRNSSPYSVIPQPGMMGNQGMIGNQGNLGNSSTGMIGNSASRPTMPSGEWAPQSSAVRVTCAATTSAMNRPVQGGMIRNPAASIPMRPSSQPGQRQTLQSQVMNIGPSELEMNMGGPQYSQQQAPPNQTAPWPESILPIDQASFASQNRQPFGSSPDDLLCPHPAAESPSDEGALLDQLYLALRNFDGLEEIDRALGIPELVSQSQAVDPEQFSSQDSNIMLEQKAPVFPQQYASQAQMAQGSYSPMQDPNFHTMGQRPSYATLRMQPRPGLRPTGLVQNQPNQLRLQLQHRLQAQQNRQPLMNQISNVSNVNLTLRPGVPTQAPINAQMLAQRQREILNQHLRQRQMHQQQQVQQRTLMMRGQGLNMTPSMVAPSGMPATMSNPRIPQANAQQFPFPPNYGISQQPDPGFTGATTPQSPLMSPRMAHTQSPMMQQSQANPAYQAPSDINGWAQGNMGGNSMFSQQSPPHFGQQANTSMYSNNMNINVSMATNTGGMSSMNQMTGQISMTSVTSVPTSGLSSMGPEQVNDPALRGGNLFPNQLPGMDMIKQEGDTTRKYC

Cytochrome P450 3A4 = Cytochrome P450 3A4 (Homo sapiens, UniProt P08684);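 further: CYP3A4 tested as one member of a cytochrome P450 panel screen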
Sequence of Cytochrome P450 3A4 (P08684 whole entry): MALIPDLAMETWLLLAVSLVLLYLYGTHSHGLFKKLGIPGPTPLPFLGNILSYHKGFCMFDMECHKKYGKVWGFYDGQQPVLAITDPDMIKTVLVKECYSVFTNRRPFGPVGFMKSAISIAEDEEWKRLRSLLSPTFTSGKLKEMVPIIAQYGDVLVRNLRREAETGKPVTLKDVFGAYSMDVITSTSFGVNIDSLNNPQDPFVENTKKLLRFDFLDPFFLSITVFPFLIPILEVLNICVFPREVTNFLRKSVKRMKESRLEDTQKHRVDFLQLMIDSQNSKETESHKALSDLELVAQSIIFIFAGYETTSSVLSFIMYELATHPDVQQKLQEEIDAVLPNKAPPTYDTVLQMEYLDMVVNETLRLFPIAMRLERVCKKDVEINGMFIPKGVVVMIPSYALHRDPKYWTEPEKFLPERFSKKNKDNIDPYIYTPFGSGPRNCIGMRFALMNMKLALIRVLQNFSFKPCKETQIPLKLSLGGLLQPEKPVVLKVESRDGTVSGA

[4] = molecular target: Glyceraldehyde-3-phosphate dehydrogenase (Homo sapiens, UniProt P04406)
Sequence of Glyceraldehyde-3-phosphate dehydrogenase (P04406 whole entry): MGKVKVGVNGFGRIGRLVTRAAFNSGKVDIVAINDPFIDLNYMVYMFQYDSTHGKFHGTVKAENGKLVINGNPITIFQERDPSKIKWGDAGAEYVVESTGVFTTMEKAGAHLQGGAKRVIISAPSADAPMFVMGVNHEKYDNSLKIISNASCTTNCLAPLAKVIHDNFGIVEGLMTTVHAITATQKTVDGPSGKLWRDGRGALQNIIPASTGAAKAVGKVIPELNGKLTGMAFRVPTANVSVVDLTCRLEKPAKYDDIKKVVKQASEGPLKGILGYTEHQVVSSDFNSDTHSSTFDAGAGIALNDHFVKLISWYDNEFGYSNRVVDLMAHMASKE

[5] = molecular target: T1, Alkaline phosphatase, tissue-nonspecific isozyme (Homo sapiens, UniProt P05186); test: potency against alkaline phosphatase TNAP – biochemical, luminescent, dose response, SAR follow-up (AID 1056)
T1 sequence (P05186 whole entry): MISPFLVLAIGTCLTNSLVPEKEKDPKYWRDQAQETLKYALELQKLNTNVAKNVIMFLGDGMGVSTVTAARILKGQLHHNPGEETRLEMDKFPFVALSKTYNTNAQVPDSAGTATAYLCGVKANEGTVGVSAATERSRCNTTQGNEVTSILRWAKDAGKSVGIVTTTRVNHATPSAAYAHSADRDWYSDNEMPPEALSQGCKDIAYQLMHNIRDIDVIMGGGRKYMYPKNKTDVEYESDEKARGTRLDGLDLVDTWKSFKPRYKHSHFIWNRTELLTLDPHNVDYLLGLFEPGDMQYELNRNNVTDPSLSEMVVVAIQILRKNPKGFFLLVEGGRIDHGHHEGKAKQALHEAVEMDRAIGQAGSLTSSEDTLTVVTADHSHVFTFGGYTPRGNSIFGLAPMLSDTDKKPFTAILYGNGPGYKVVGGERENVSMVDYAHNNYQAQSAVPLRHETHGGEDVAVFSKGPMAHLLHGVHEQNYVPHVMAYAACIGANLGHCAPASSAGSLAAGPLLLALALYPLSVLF

Cytochrome P450 2D6 = Cytochrome P450 2D6 (Homo sapiens, UniProt P10635);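 further: CYP2D6 member of a cytochrome P450 panel assay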
Cytochrome P450 1A2 = molecular target: T2, Cytochrome P450 1A2 (Homo sapiens, UniProt P05177);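 further: PubChem cytochrome P450 panel assay, CYP1A2 panel member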
T2 sequence (P05177 whole entry): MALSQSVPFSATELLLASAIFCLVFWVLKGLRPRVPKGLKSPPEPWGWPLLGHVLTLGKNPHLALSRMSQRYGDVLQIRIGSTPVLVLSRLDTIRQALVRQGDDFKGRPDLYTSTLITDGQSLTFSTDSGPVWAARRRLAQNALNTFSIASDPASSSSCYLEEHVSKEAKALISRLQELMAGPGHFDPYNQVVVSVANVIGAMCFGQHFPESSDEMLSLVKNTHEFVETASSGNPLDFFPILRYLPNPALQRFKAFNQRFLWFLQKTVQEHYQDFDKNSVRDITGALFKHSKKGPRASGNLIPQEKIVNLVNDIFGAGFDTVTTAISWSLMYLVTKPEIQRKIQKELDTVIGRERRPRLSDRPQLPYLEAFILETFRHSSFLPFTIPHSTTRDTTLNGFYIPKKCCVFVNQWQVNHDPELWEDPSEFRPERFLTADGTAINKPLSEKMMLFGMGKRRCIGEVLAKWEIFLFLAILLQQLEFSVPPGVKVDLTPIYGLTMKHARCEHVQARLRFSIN

Protein Wnt-3a = Protein Wnt-3a (Mus musculus, UniProt P27467); test: antagonism of Wnt3a pathway luciferase reporter – Wnt-LIGHT cells, luminescence, selectivity assay for Gli-SUFU antagonist project, dose response (AID 651570); assay type: functional; conditions: read-out: IC50_Mean;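 further: Wnt-LIGHT reporter cells stimulated with conditioned medium from Wnt3a-producing cells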
Cytochrome P450 2C19 = Cytochrome P450 2C19 (Homo sapiens, UniProt P33261); test: Cytochrome panel assay with activity outcomes. Panel member name: p450-cyp2c19 Compounds with AC50 equal or less than 10 uM are considered active; assay type: functional
Cytochrome P450 2C9 = Cytochrome P450 2C9 (Homo sapiens, UniProt P11712)
[6] = Trypanosoma cruzi growth suppression in host cells – NIH3T3 host cells, beta-gal luminescence, confirmation (AID 2044); assay type: functional, cell-based;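 further: intracellular parasites grown in NIH/3T3 mouse fibroblasts as host cells; luminescent beta-galactosidase reporter signal from transgenic T. cruzi replicating inside host cells; inhibitors lower the luminescence signal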
[7] = microbe, parasite or virus in culture; assay type: functional; conditions: Mycobacterium tuberculosis
[8] = NIH3T3 cell viability loss – ATP luminescence, mouse fibroblasts, counter-screen, dose response (AID 2010); assay type: functional, cell-based;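 further: cells exposed to compound for about 90 hours before reading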
[9] = molecular target: Voltage-dependent T-type calcium channel subunit alpha-1H (Homo sapiens, UniProt O95180); assay type: functional;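 further: channel activity triggered by adding a high calcium stimulation buffer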
[10] = Luminescence Cell-Based Dose Retest to Confirm Inhibitors of Cancer Stem Cells. [Related pubchem assays (depositor defined):AID2717, AID2721]; assay type: functional; conditions: Homo sapiens

COC(=O)c1c(C)[nH]c(C(=O)C(C)Sc2nnc(-c3cc(OC)c(OC)c(OC)c3)o2)c1C (stereo not given)
EC50 [1]: > 79.4 µM (inactive)
EC50 [2]: > 79.4 µM (not active)
EC50 [3]: > 79.4 µM (not active)

O=C(Nc1ccccc1)N1CCC2(CC1)CCN(C(=O)Oc1ccccc1)CC2
AC50 (Cytochrome P450 3A4): inconclusive

NC(=O)c1cn(S(=O)(=O)c2ccc3ccccc3c2)c2ccccc12
IC50 [4]: > 100 µM (not active)
IC50 [5]: > 100 µM (inactive)

CN1CCN(c2ncc3nc(-c4ccc(Cl)cc4)c(=O)n(Cc4ccc(F)cc4)c3n2)CC1
AC50 (Cytochrome P450 2D6): 39.8 µM (inconclusive)
AC50 (Cytochrome P450 1A2): 31.6 µM (inconclusive)
AC50 (Cytochrome P450 3A4): inconclusive

COc1cccc(-c2cc(C(=O)O)[nH]n2)c1
IC50 [4]: > 100 µM (not active)
IC50 [5]: > 100 µM (inactive)

CCOC(=O)N1CCN(C(=O)c2ccc(CSc3ccc(Cl)cc3)cc2)CC1
IC50 (Protein Wnt-3a): 15.6 µM (active)

CC(=O)c1sc(NC(=O)C(C)C)nc1C
EC50 [1]: > 79.4 µM (inactive)
EC50 [2]: > 79.4 µM (not active)
EC50 [3]: > 26.5 µM (not active)
AC50 (Cytochrome P450 2C19): inconclusive
AC50 (Cytochrome P450 2C9): 39.8 µM (inconclusive)

Cc1ccccc1N1CCN(C(=O)c2ccc(Oc3ccc(C(F)(F)F)cn3)cc2)CC1
EC50 [6]: 2.32 µM (active)
CC50 [7]: > 40 µM (active)
EC50 [8]: > 60 µM (not active)
EC50 [9]: 5.89 µM (active)
AC50 [10]: 3.43 µM (active)

COc1ccc(NC(=O)CSc2c3c(nc4ccccc24)CCCC3)c(OC)c1
EC50 [1]: > 79.4 µM (inactive)
EC50 [2]: > 79.4 µM (not active)
EC50 [3]: 35.4 µM (not active)
